# Source: patent US20120238554A1, “SALTS OF POTASSIUM ATP CHANNEL OPENERS AND USES THEREOF” (priority 2007, published 2012)
# How the values were obtained:
# [1] = system: patients with elevated fasting triglycerides; assay: Diazoxide treatment of hypertriglyceridemia, 7 to 49 days: fasting triglycerides, LDL-cholesterol; type: in vivo, human; settings: for fasting triglycerides reduced: titrated patients
# Experimental: All patients were dosed once per day for an uninterrupted period of time.
# Patients were placed on a low fat diet at the start of treatment which continued to the end of treatment.
# Each subject's baseline circulating triglyceride level was calculated as the average of two measurements of fasting triglycerides taken approximately two weeks apart, with the second taken predose on the first day of treatment.
# [2] = system: patients with primary pulmonary hypertension; settings: cited from earlier work
# [3] = Solubility in 100 mM phosphate buffer with titration, 18 h slurry (Table 15); type: physicochemical; settings: thermodynamic from solid, ambient
# Experimental: Each determination was carried out in duplicate, slurrying each sample in a 100 mM phosphate buffer solution, pH 7.00. […] After this time all samples were centrifuged, and the supernatant was diluted with mobile phase (MeCN/Water.).
# obese subjects = assay: Single 200 mg dose study: fasting glucose, insulin, NEFA, serum Na, K, creatinine; settings: either formulation
# Experimental: Three exploratory endpoints were evaluated in the study. Blood glucose, insulin and non-esterified fatty acids (NEFA) were measured prior to dosing and at 1, 3, 6, 9, 12, 24, and 48 hours post dosing. Blood glucose and insulin levels were also assessed at end of study. Data collected at times 1, 3, 24, and 48 hours after dose administration were obtained under fasting conditions. The remaining data points were post-prandial measures.
# [4] = system: Zucker Diabetic Fatty (ZDF) rats; settings: 150 mg/kg/day, 8 weeks; cited from earlier work
# [5] = system: barbital-anesthetized open-chest pigs; settings: 3.5 mg/kg IV, 30 min occlusion, 3 h reflow, n=7; cited from earlier work
# [6] = Slurry studies of inter-conversion of the solid form; settings: room temperature, no light, 14 days; water, isopropyl alcohol, dichloromethane, toluene
# [7] = system: person with pulmonary hypertension; settings: oral diazoxide over six years; cited from earlier work
# [8] = Moisture sorption analysis; type: physicochemical
# Experimental: Moisture Sorption Analysis was performed with a Hiden IGAsorp Moisture Sorption Instrument, Samples were first dried at 0% relative humidity at 25° C. until an equilibrium weight was reached, or for a maximum of 4 hours. Samples were then subjected to an isothermal (25° C.) scan from 10-90% relative humidity in steps of 10%. The samples were allowed to equilibrate to an asymptotic weight at each point for a maximum of 4 hours. Following absorption, a desorption scan from […] relative humidity (at 25° C.) was run in steps of −10%, again allowing a maximum of 4 hours for the samples to equilibrate. The resulting samples after desorption were dried at 80° C. for two hours and analyzed by XRPD.
# [9] = system: cardiomyocytes from the infarct border zone; settings: cardiomyocytes from the infarct border zone (74 ms without, sham 41 ms); cited from earlier work
# [10] = Form conversion and degradation under thermal stress (60° C.); settings: 60° C., closed, protected from light, 7 and 14 days
# Experimental: Studies were also conducted to evaluate the likelihood for conversion and degradation under thermal stress.
compound,measurement,setting,value
"CC1=NS(=O)(=O)c2cc(Cl)ccc2N1 [diazoxide, 7-chloro-3-methyl-2H-1,2,4-benzothiadiazine 1,1 dioxide]",reductions in fasting triglycerides,"[1]; 100 mg per day diazoxide equivalent as Diazoxide Choline Controlled-Release Tablets, 7 days",38%
same,reductions in fasting triglycerides,"[1]; 100 mg per day diazoxide equivalent, 14 days",18%
same,reductions in fasting triglycerides,"[1]; 150 mg for 5 days then 300 mg for 9 days, at 7 and 14 days",50%
same,reductions in fasting triglycerides,"[1]; 200 mg per day diazoxide equivalent, 7 days",23%
same,reductions in fasting triglycerides,"[1]; 200 mg per day diazoxide equivalent, 14 days",20%
same,reductions in fasting triglycerides,"[1]; 300 mg per day diazoxide equivalent, 7 days",18%
same,reductions in fasting triglycerides,"[1]; 300 mg per day diazoxide equivalent, 14 days",29%
same,reductions in fasting triglycerides,"[1]; 400 mg per day diazoxide equivalent, 7 days",50%
same,rise in LDL-cholesterol,"[1]; Patient 13, day 21",6.7%
same,rise in LDL-cholesterol,"[1]; Patient 13, day 42",11%
same,reductions in LDL-cholesterol,[1]; patient 8,−8.6%
same,reductions in LDL-cholesterol,[1]; patient 9,−15.3%
same,fasting triglycerides reduced,[1]; end of treatment with 150 mg,21%
same,fasting triglycerides reduced,[1]; end of treatment with 200 mg,31%
same,fasting triglycerides reduced,[1]; end of treatment with 250 mg,38%
same,fasting triglycerides reduced,[1]; end of treatment with 300 mg,38%
same,fasting triglycerides reduced,[1]; end of treatment with 350 mg,49%
same,change in pulmonary artery pressure,"[2]; injected into the pulmonary artery, nine patients",no significant change
same,patients unable to tolerate the drug,[2]; oral diazoxide given to seven patients,Five
same,solubility at 18 h,"[3]; pH 6.9, aqueous buffer, pH after slurry 6.90",70 µg/mL
same,solubility at 18 h,"[3]; pH 7.31, aqueous buffer, pH after slurry 7.31",70 µg/mL
same,fasting glucose,obese subjects; 24 or 48 hours after dose administration,no evidence for a significant increase in fasting glucose
same,fasting insulin,obese subjects; after the single 200 mg dose,no evidence for a reduction in fasting insulin
same,"hepatic triglycerides, long chain acyl-CoA and cholesterol contents",[4],decreased
same,Infarct size (percentage of the area at risk),[5],14.6±7.4%
same,inter-conversion of the solid form in slurry,[6],did not convert to alternate crystal forms
same,pulmonary arterial pressure,[7],reduced to normal levels
same,crystalline form after moisture sorption/desorption (XRPD),[8],same crystalline form
same,hydrate formation (hysteresis upon desorption),[8]; 25° C.,does not form a stable hydrate
same,Moisture Sorption (hygroscopicity),"[8]; 25° C., listed as free form diazoxide",non-hygroscopic
same,water absorbed,"[8]; 60% RH, 25° C.",approximately 0.04 wt %
same,water absorbed,"[8]; 90% RH, 25° C.",~0.20 wt %
same,action potential duration,[9],42 ms
same,"form conversion and degradation under thermal stress (XRPD, DSC)",[10],no conversion or degradation
